Assays:
[1] = target: CLK2 kinase (Homo sapiens, UniProt P49760); test: CLK2 kinase activity assay (Z-lyte FRET); format: biochemical; details: Z-lyte Ser/Thr 6 peptide, 60 μM ATP, 1 h at room temperature;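 also: FRET read-out as coumarin to fluorescein emission ratio, unphosphorylated peptide as 0% and phosphorylated peptide as 100% controls, duplicate reactions, non-linear regression fit of dose-response curves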
[2] = tested on: primary human mesenchymal stem cells (hMSCs); test: Chondrogenesis screening using primary human mesenchymal stem cells; format: cell-based; details: Homo sapiens, Mesenchymal stem cells, hMSC chondrogenesis; for Emax: maximum activity relative to TGF-β3 (10 ng/mL) positive control, read-out: Max. Activity as % TGF-β3 activity
Outline: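 Primary hMSCs at passage 3–6 were treated across compound concentrations, with TGF-β3 as positive control. Chondrogenic nodule area per well was normalized to 3 DMSO wells on the same plate (fold over DMSO, 2–3 replicates). EC50, maximum activity and the dose reaching it were derived.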

[3] = tested on: MMP-3 levels in supernatant of chondrocytes stimulated with IL1-β; test: Chondrocyte protection assay compound screening (MMP-3 LANCE Ultra); format: cell-based, human; details: IL1-β 10 ng/mL overnight, 11-point curves from 3 μM to 0.05 nM; for Emax: read-out: Maximum % Inhibition
Experimental: Human Chondrocyte Cell Culture: Primary human chondrocytes were purchased from Lonza (Walkersville, Md.) and expanded in Chondrocyte Growth Media (CGM, Lonza). Cells between passage 2 and 5 were used for the experiments.
Chondrocytes were plated at 8,000 cells/well in 40 μL/well Chondrocyte Differentiation Medium (Lonza; 500 mL Basal Medium, 25 mL FBS, 0.5 mL GA-1000, 1 mL R3-IGF, 2.5 mL bFGF, 0.5 mL Transferrin, and 1 mL Insulin). After 2 hours of incubation at 37° C. and 5% CO2, IL1-β (Peprotech, Rocky Hill, N.J.) was added to a final concentration of 10 ng/mL. 11 wells in 1 row were left unstimulated for normalization and calculating EC50 values. Cells were incubated at 37° C. and 5% CO2 overnight. Assay plates are spun, 25 μl of supernatant media was collected using (S2 pipettor, Apricot Designs). Cells were lysed using 10 μL of (Cell Titer-Glo, Promega). Luminescent signal detected using an En Vision Multilabel reader (Perkin Elmer). MMP-3 levels were measured in supernatant. Supernatant diluted 1:7 in DMEM. MMP-3 levels in the supernatant were measured using MMP-3 LANCE Ultra detection kit (Perkin Elmer). Briefly, 5 μL of diluted supernatant was transferred to low-volume 384 well plates using (S2 pipettor, Apricot Designs). A standard curve was prepared using MMP-3 analyte (range […]). 1.7 μL of 8× mix of Eu-labelled anti-MMP-3 antibody and ULight labelled anti-MMP-3 antibody was added to the plates using Mantis Liquid handler (Formulatrix). Plates were incubated overnight at room temperature. LANCE signal was detected using an EnVision Multilabel reader (Perkin Elmer), equipped with TR-FRET using excitation wavelength of 320 nm and two emission wavelengths of 615 nm and 665 nm. Data was analyzed according to the kit protocol, using the ratio of […] and the standard curve values were used to calculate the amount of MMP3 in the […] (in pg/ml). The normalized averages (fold change over IL1-β stimulated) for each compound concentration were calculated. EC50 and maximum % inhibition values were calculated using the dose-response nonlinear regression curve-fit in Dotmatics.

[4] = tested on: Wnt pathway activity (SW480 colon carcinoma cells stably expressing the Sp5-Luc reporter); test: Wnt pathway activity screening assay (Sp5-Luc reporter gene assay); details: Homo sapiens, SW480, Table 4; SW480 cells stably expressing Sp5-Luc reporter, 10-point dose-response from 10 μM, 36 to 48 hours
[5] = target: CLK3 kinase (Homo sapiens, UniProt P49761); test: CLK3 kinase activity assay (Z-lyte FRET); format: biochemical; details: Z-lyte Ser/Thr 18 peptide, 156 μM ATP, 1 h at room temperature;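 also: kinase activity read as coumarin/fluorescein emission ratio by FRET, unphosphorylated peptide as 0% and phosphorylated peptide as 100% control, values from non-linear regression of dose-response curves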
CLK3 kinase, sequence (P49761 whole entry): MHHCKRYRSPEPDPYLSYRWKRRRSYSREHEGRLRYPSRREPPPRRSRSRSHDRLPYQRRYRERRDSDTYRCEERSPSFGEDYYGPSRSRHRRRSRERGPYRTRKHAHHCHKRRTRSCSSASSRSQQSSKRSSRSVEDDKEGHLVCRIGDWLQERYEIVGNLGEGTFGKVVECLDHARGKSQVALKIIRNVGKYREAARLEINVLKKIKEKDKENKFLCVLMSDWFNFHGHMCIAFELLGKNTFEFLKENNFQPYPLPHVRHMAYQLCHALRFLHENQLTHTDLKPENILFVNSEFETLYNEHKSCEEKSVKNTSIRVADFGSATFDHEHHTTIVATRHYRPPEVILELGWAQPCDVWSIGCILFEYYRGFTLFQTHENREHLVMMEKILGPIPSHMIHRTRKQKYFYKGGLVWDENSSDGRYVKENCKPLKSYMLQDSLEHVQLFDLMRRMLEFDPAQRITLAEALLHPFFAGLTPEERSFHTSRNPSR

CLK2 kinase, sequence (P49760 whole entry): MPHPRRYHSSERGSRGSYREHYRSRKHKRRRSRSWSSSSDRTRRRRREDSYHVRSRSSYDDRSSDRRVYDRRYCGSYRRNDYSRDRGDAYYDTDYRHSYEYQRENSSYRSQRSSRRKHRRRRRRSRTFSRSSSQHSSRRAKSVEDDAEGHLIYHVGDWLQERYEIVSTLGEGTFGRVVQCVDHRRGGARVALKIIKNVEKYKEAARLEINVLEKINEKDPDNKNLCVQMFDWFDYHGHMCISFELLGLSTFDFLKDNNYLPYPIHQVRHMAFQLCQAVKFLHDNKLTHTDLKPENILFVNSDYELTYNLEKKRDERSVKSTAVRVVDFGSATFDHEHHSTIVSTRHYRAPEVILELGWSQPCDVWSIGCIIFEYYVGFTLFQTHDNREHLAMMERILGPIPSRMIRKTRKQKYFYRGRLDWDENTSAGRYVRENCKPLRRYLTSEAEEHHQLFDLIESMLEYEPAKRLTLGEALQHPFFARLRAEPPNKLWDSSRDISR

Structure (SMILES) | EC50 [1] [µM] | Emax [2] [%] | EC50 ([3]; Homo sapiens, Chondrocyte) [µM] | Emax ([3]; Homo sapiens, Chondrocyte) [%] | EC50 [4] [µM] | EC50 ([2]; concentration required to induce 50% levels of chondrogenesis with TGF-β3 as positive control, read-out: Conc (nM) of 50% TGF-β3 activity) [nM] | EC50 [5] [µM] | EC50 [3] [µM] | Maximum % Inhibition [3] [%]
O=C(Nc1c[nH]nc1C(=O)Nc1cncc(-c2cccc(F)c2)c1)c1cncc(F)c1 [compound 2] | 0.072 | 81.5 | 0.0004 | 58.2 | 0.479 | – | – | – | –
COc1cncc(C(=O)Nc2c[nH]nc2C(=O)Nc2ccc(N3CCC(F)(F)C3)nc2)c1 [compound 6] | 0.015 | 124 | 0.0022 | 42.1 | 0.0057 | 300 | – | – | –
CN(C)Cc1ccc(C(=O)Nc2cc3cc(-c4cnn(C)c4)ccc3cn2)cc1 [compound 540] | 0.003 | – | 0.0474 | 80.7 | – | – | 0.041 | – | –
CN1CCN(c2ccc(C(=O)Nc3cc4cc(-c5cnn(C)c5)ccc4cn3)cn2)CC1 [compound 542] | – | – | – | – | – | – | 0.036 | 0.0095 | 47.6
CN(C)CCNc1cc(C(=O)Nc2cc3cc(-c4cnn(C)c4)ccc3cn2)ccn1 [compound 543] | 0.003 | – | 0.306 | 81.8 | – | – | 0.06 | – | –
CN(C)CCOc1cc(C(=O)Nc2cc3cc(-c4cnn(C)c4)ccc3cn2)ccn1 [compound 544] | 0.002 | – | 1.01 | 63.5 | – | – | 0.031 | – | –
CN1CCN(c2cc(C(=O)Nc3cc4cc(-c5cnn(C)c5)c(F)cc4cn3)ccn2)CC1 [compound 546] | 0.002 | – | 0.0004 | 97.3 | – | – | 0.021 | – | –
CN1CCN(c2cc(C(=O)Nc3cc4c(Cl)c(-c5cnn(C)c5)ccc4cn3)ccn2)CC1 [compound 547] | 0.003 | – | 0.898 | 52.1 | – | – | 0.043 | – | –
Cc1cc(C(=O)Nc2cc3cc(-c4cnn(C)c4)ccc3cn2)cc(N2CCN(C)CC2)n1 [compound 548] | 0.002 | – | ≥ 3 | 62.4 | – | – | 0.026 | – | –
Cn1cc(-c2ccc3cnc(NC(=O)c4ccnc(N5CC6CC5CN6)c4)cc3c2)cn1 (centres unmarked) [compound 549] | 0.003 | – | ≥ 3 | 69 | – | – | 0.026 | – | –
CN1CCCN(c2cc(C(=O)Nc3cc4cc(-c5cnn(C)c5)ccc4cn3)ccn2)CC1 [compound 550] | – | – | ≥ 3 | 66.9 | – | – | 0.028 | – | –
CN1CCN(c2ccc(C(=O)Nc3cc4cc(-c5cnn(C)c5)ccc4cn3)cn2)CC1 [compound 551] | – | – | – | – | – | – | 0.078 | 1.05 | 100.0
CN(C)C1CCN(c2cc(C(=O)Nc3cc4cc(-c5cnn(C)c5)ccc4cn3)ccn2)CC1 [compound 552] | – | – | 0.697 | 83.2 | – | – | 0.009 | – | –
CN1CCN(c2ccc(C(=O)N3CCN(c4cc(C(=O)Nc5cc6cc(-c7cnn(C)c7)ccc6cn5)ccn4)CC3)cn2)CC1 [compound 553] | 0.002 | – | 0.304 | 52.3 | – | – | 0.28 | – | –
CN1CCC2(CC1)CN(c1cc(C(=O)Nc3cc4cc(-c5cnn(C)c5)ccc4cn3)ccn1)C2 [compound 554] | 0.001 | – | ≥ 3 | 53.7 | – | – | 0.016 | – | –
Cn1cc(-c2ccc3cnc(NC(=O)c4ccnc(OC5CNC5)c4)cc3c2)cn1 [compound 556] | 0.002 | – | 0.154 | 100 | – | – | 0.038 | – | –
Cn1cc(-c2ccc3cnc(NC(=O)c4ccc5c(c4)CNCC5)cc3c2)cn1 [compound 557] | 0.002 | – | 1.63 | 50.5 | – | – | 0.039 | – | –
Cn1cc(-c2ccc3cnc(NC(=O)c4ccc5c(c4)ncn5C)cc3c2)cn1 [compound 558] | 0.003 | – | ≥ 3 | 46.9 | – | – | 0.049 | – | –

— patent US20230000842A1, “METHODS OF TREATING CARTILAGE DISORDERS THROUGH INHIBITION OF CLK AND DYRK” (SAMUMED, LLC, priority 2019, published 2023)
